The record followed here is patent publication EP0626016B1, “[…] […]” (BRITISH TECHNOLOGY GROUP LIMITED, priority 1992, dated 1993).

The target of one test is T1, HRP (Armoracia rusticana, UniProt P00433).
T1 construct: purchased Sigma Chemical Co
T1 sequence (P00433 31-338): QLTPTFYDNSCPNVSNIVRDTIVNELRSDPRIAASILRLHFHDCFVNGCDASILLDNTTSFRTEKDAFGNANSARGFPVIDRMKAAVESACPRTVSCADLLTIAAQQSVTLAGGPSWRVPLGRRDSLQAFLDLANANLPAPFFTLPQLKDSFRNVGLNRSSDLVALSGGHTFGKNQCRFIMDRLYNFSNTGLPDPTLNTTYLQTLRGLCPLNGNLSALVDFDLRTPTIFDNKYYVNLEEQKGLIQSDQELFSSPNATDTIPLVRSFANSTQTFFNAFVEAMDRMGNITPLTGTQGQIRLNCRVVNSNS
In words: CPA as enhancer of the luminol-H2O2-HRP reaction, Amerlite microplate reader (Example 9). Format: biochemical, horseradish. As for the experimental part:
PBBA was added in various concentrations (range 0.05µg to 0.5µg) to a luminol-H2O2 reaction in the presence and absence of HRP. The luminol-hydrogen peroxide reagent was prepared as follows: sodium luminol (12.5mg) was dissolved in 50ml of Tris buffer (0.1mol/l, pH 8.6), and 15.5µl of hydrogen peroxide (30% w/v) was mixed with 0.5ml of Tris buffer (0.lmol/l, pH 8.6). These two solutions were combined and protected from light. The luminol-hydrogen peroxide reagent (100µl of a 1:10 dilution) was added to a cuvette together with either 10µl of HRP Type VI A (HRP, Sigma Chemical Co., 1:50,000 dilution) or as a control 10µl of Tris Buffer (0.1mol/l, pH 8.6), and various amounts of PBBA (Aldrich Chemical Co.), range 0.05µg-0.5µg in 0.1mol/l Tris, pH 8.6). The reagents were mixed and the light emission recorded after 5 minutes on a Berthold Biolumat LB9500C.
The experiment of Example 1 was repeated using CPA in place of PBBA. Various dilutions of CPA (Cookson Chemicals Ltd., Southampton, UK, […] in 1 mg/ml Tris buffer, pH 8.6) were used. […] "Amerlite" is a Registered Trade Mark.

The target in a further test is T2, HRP Type VIA (Armoracia rusticana, UniProt P00433).
T2 sequence (P00433 31-338): T1 sequence (P00433 31-338)
The following applies: for (d) Signal: Background: ratio (control = with no enhancer): control value in brackets not reported.

Where two headings read alike, the source gives them in different places.

Consider `O=C(O)C=Cc1ccc(B(O)O)cc1` [CPA, 4-(2-carboxyethenyl)phenylboronic acid], for which the “Signal (no HRP)” value at HRP (CPA 0.01 µg) was determined as 0.094; at HRP (CPA 0.02 µg), 0.09; at HRP (CPA 0.05 µg), 0.09; on HRP (CPA 0.1 µg), 0.09; on HRP (CPA 0.2 µg) it was 0.08; on HRP (CPA 0.5 µg), 0.07. The results for the “Signal (no HRP)” value at HRP (CPA 1.0 µg), at HRP (CPA 10 µg) and at HRP (CPA 20 µg) were 0.06, 0.02 and 0.003, respectively. The “Signal (with HRP)” value at HRP (CPA 0.01 µg) is reported as 0.41; on HRP (CPA 0.02 µg) it was 0.46; at HRP (CPA 0.05 µg), 0.68; at HRP (CPA 0.1 µg) it was 1.23; on HRP (CPA 0.2 µg), 2.37; at HRP (CPA 0.5 µg), 4.57. The “Signal (with HRP)” value on HRP (CPA 1.0 µg) is reported as 5.58; at HRP (CPA 10 µg), 2.49; at HRP (CPA 20 µg), 0.88. For the same compound, the “Signal: Background ratio” value on HRP (CPA 0.01 µg) amounted to 4.4; at HRP (CPA 0.02 µg) it was 5.1; on HRP (CPA 0.05 µg), 7.6; at HRP (CPA 0.1 µg) it was 14.2; at HRP (CPA 0.2 µg), 28.2; at HRP (CPA 0.5 µg) it was 63.4. Besides, the “Signal: Background ratio” value at HRP (CPA 1.0 µg) is on record as 93.0; at HRP (CPA 10 µg) it was 124.9; on HRP (CPA 20 µg), 43.9.

`CSCc1ccccc1B(O)O` [Compound 1050, 2-(methylthiomethyl)phenylboronic acid]: at HRP Type VIA (0.01 mg/ml, 10µl test compound), the “(a) Decrease in background (without HRP with test cpd.)” value is listed as “Y”; the “(b) Increase in signal (with HRP, with test cpd.)” value (from here on “(b) Increase in signal”) is recorded as “N”; the “(c) Increase in signal: background ratio” value is given as “N (N = no)”. Further, on HRP Type VIA (0.1 mg/ml, 10µl test compound), the “(a) Decrease in background (without HRP with test cpd.)” value was “Y”; the “(b) Increase in signal” value was “N”; the “(c) Increase in signal: background ratio” value was “N (N = no)”; the “(d) Signal: Background: ratio (control = with no enhancer)” value is 3.3 (2.9). At HRP Type VIA (1 mg/ml, 10µl test compound), the “(a) Decrease in background (without HRP with test cpd.)” value is reported as “Y”; the “(b) Increase in signal” value is given as “N”; the “(c) Increase in signal: background ratio” value is “N (N = no)”.

Consider bis(catechol)borate [Compound 1013], for which, on HRP Type VIA, the “(a) Decrease in background (without HRP with test cpd.)” value is “Y” and the “(b) Increase in signal” value was “N”.

Turning to boraxarophenanthrene [Compound 1014], at HRP Type VIA (0.01 mg/ml, 10µl test compound), the “(a) Decrease in background (without HRP with test cpd.)” value was “Y”; the “(b) Increase in signal” value is recorded as “N”; the “(c) Increase in signal: background ratio” value was “N (N = no)”; the “(d) Signal: Background: ratio (control = with no enhancer)” value came to 2.3. At HRP Type VIA (0.1 mg/ml, 10µl test compound), the “(a) Decrease in background (without HRP with test cpd.)” value is recorded as “Y”; the “(b) Increase in signal” value was “N”; the “(c) Increase in signal: background ratio” value is recorded as “N (N = no)”; the “(d) Signal: Background: ratio (control = with no enhancer)” value was found to be 1.6. Moreover, at HRP Type VIA (1 mg/ml, 10µl test compound), the “(a) Decrease in background (without HRP with test cpd.)” value is “Y”; the “(b) Increase in signal” value is given as “N”; the “(c) Increase in signal: background ratio” value is listed as “N (N = no)”; the “(d) Signal: Background: ratio (control = with no enhancer)” value is reported as 1.8 (2.5).

Take boroglycine [Compound 1015]: on HRP Type VIA (0.01 mg/ml, 10µl test compound), the “(a) Decrease in background (without HRP with test cpd.)” value is recorded as “Y”; the “(b) Increase in signal” value is “Y”; the “(c) Increase in signal: background ratio” value is recorded as “N (N = no)”; the “(d) Signal: Background: ratio (control = with no enhancer)” value is given as 2.3. Moreover, at HRP Type VIA (0.1 mg/ml, 10µl test compound), the “(a) Decrease in background (without HRP with test cpd.)” value is listed as “Y”; the “(b) Increase in signal” value is “Y”; the “(c) Increase in signal: background ratio” value was “Y (Column (c) shows whether there was an increase in the signal:background ratio by over 25% of the control value (Y = yes)”; the “(d) Signal: Background: ratio (control = with no enhancer)” value was 2.9. Besides, on HRP Type VIA (1 mg/ml, 10µl test compound), the “(a) Decrease in background (without HRP with test cpd.)” value is on record as “Y”; the “(b) Increase in signal” value is “N”; the “(c) Increase in signal: background ratio” value is on record as “Y (Column (c) shows whether there was an increase in the signal:background ratio by over 25% of the control value (Y = yes)”; the “(d) Signal: Background: ratio (control = with no enhancer)” value is recorded as 3.1 (2.1).

On to “dimethylphenylboronic acid [Compound 1036]”, for which, at HRP Type VIA (0.01 mg/ml, 10µl test compound), the “(a) Decrease in background (without HRP with test cpd.)” value is recorded as “Y”; the “(b) Increase in signal” value is on record as “N”; the “(c) Increase in signal: background ratio” value is reported as “Y (Column (c) shows whether there was an increase in the signal:background ratio by over 25% of the control value (Y = yes)”; the “(d) Signal: Background: ratio (control = with no enhancer)” value is on record as 2.6 (2.0). Moreover, at HRP Type VIA (0.1 mg/ml, 10µl test compound), the “(a) Decrease in background (without HRP with test cpd.)” value is “Y”; the “(b) Increase in signal” value is recorded as “N”; the “(c) Increase in signal: background ratio” value is “Y (Column (c) shows whether there was an increase in the signal:background ratio by over 25% of the control value (Y = yes)”; the “(d) Signal: Background: ratio (control = with no enhancer)” value is listed as 7.6 (2.9). Moreover, at HRP Type VIA (1 mg/ml, 10µl test compound), the “(a) Decrease in background (without HRP with test cpd.)” value was “Y”; the “(b) Increase in signal” value is “N”; the “(c) Increase in signal: background ratio” value is recorded as “N (N = no)”.

For “diphenylboronic anhydride [Compound 1048]”, on HRP Type VIA (0.01 mg/ml, 10µl test compound), the “(a) Decrease in background (without HRP with test cpd.)” value was “Y”; the “(b) Increase in signal” value was “Y”; the “(c) Increase in signal: background ratio” value is on record as “Y (Column (c) shows whether there was an increase in the signal:background ratio by over 25% of the control value (Y = yes)”; the “(d) Signal: Background: ratio (control = with no enhancer)” value was 3.1 (1.8). Also, on HRP Type VIA (0.1 mg/ml, 10µl test compound), the “(a) Decrease in background (without HRP with test cpd.)” value was “Y”; the “(b) Increase in signal” value was “Y”; the “(c) Increase in signal: background ratio” value is “Y (Column (c) shows whether there was an increase in the signal:background ratio by over 25% of the control value (Y = yes)”; the “(d) Signal: Background: ratio (control = with no enhancer)” value is recorded as 139.0 (2.7). Also, on HRP Type VIA (1 mg/ml, 10µl test compound), the “(a) Decrease in background (without HRP with test cpd.)” value is “Y”; the “(b) Increase in signal” value is on record as “N”; the “(c) Increase in signal: background ratio” value is reported as “Y (Column (c) shows whether there was an increase in the signal:background ratio by over 25% of the control value (Y = yes)”; the “(d) Signal: Background: ratio (control = with no enhancer)” value was 100.0 (4.5).

As for “methyl-(2-tolylboronic acid)sulfoxide [Compound 1051]”, the “(a) Decrease in background (without HRP with test cpd.)” value at HRP Type VIA (0.01 mg/ml, 10µl test compound) was “Y”; on HRP Type VIA (0.1 mg/ml, 10µl test compound) it was “Y”; on HRP Type VIA (1 mg/ml, 10µl test compound) it was “Y”. Moreover, the “(b) Increase in signal” value on HRP Type VIA (0.01 mg/ml, 10µl test compound) is reported as “N”; on HRP Type VIA (0.1 mg/ml, 10µl test compound), “N”; at HRP Type VIA (1 mg/ml, 10µl test compound), “N”. The “(c) Increase in signal: background ratio” value at HRP Type VIA (0.01 mg/ml, 10µl test compound) was “N (N = no)”; at HRP Type VIA (0.1 mg/ml, 10µl test compound), “N (N = no)”; on HRP Type VIA (1 mg/ml, 10µl test compound) it was “N (N = no)”.
